The values below come from patent publication US9981923B2, “1,2,3 Triazole antifungal agents and preparation thereof” (COUNCIL OF SCIENTIFIC & INDUSTRIAL RESEARCH, priority 2014, dated 2018).

Structures are written as SMILES. Converted amounts (≈) assume the structure as drawn. Read-outs that look alike come from different tables or passages of the source.

Data set [1] relates to Aspergillus fumigatus MCC 1046. Put plainly: Antifungal susceptibility by microbroth dilution (CLSI). In kind it is cell-based. Particulars: Table 1, 48 h, >90% inhibition of growth. How it is done: (§1) The synthesized compounds were evaluated for antifungal susceptibility by microbroth dilution method according to the recommendations of the Clinical Laboratory Standards Institute (CLSI 2008). Briefly, appropriate amount of compounds were dissolved in dimethyl sulfoxide to get 100× final strength. The stock was then diluted 1:50 in RPMI/YPG medium and 200 μl from this was added to the first row of a 96-well microtitre plate. The compounds were serially diluted two fold in successive wells to get a range of 1-128 μg/ml. Fungal yeast cells (˜2×10^3 cfu/mL), freshly grown in YPG broth in logarithmic phase, were suspended in the medium and inoculated (100 μl) in the wells of the plate. For filamentous fungi, 2×10^4 spores/mL were added. The microtitre plate was incubated for 48 h, and the absorbance was measured at 600 nm by using microtitre plate reader to assess cell growth.
(In general: In broth dilution the organism is exposed to a series of concentrations in liquid medium.)

Data set [2] relates to Aspergillus niger ATCC 10578. Described as above. As to conditions: Table 1, 48 h, >90% inhibition of growth. In kind it is cell-based. How it is done:
as §1

The subject of data set [3] is Candida albicans ATCC 10231. The description is as above. In kind it is cell-based. As to conditions: Table 1, 48 h, >90% inhibition of growth. How it is done:
as §1

Data set [4] has as its system Candida albicans ATCC 24433. Described as above. The format is cell-based. As to conditions: Table 1, 48 h, >90% inhibition of growth, range 1-128 μg/ml. As to the method: as §1
The test system of data set [5] is Candida glabrata NCYC 388. Described as above. In kind it is cell-based. As to conditions: Table 1, 48 h, >90% inhibition of growth. As to the method:
as §1

The subject of data set [6] is Cryptococcus neoformans ATCC 34664. Described as above. The format is cell-based. Particulars: Table 1, 48 h, >90% inhibition of growth. As to the method: as §1
A further data set concerns ergosterol. Put plainly: Effect of the compounds on sterol profile (spectrophotometric ergosterol quantitation). In kind it is cell-based, C. albicans ATCC 24433. As to conditions: for ergosterol depletion (sterol profile, height of absorbance peaks 220-300 nm): C. albicans ATCC 24433, 24 h, 0.5 MIC and MIC of the lead compounds; for inhibition of lanosterol 14 α-demethylase enzyme (concluded from ergosterol depletion): C. albicans ATCC 24433 sterol profile. How it is done: Inhibition of lanosterol 14 α-demethylase by azoles results in depletion of ergosterol. The depletion can be quantified by spectrophotometry. Briefly, Overnight grown C. albicans ATCC 24433 (1×10^6 cfu/ml) cells were inoculated in a series of flasks containing 50 ml of Yeast extract Peptone Glucose (YPG) broth containing […] of fluconazole per ml as well as 0.5 MIC and MIC of the lead compounds. The cultures were incubated for 24 h with shaking at 30° C. The stationary-phase cells were harvested by centrifugation […] and washed once with sterile distilled water. The net wet weight of the cell pellet was determined. Three milliliters of 25% alcoholic potassium hydroxide solution (25 g of […] and 35 ml of sterile distilled water, brought to 100 ml with 100% ethanol), was added to 125 mg of pellet and vortex mixed for 1 min. Cell suspensions were transferred to sterile borosilicate glass screw-cap tubes and were incubated in an 85° C. water bath for 1 h. Following incubation, tubes were allowed to cool to room temperature. Sterols were then extracted by addition of a mixture of 1 ml of sterile distilled water and 3 ml of n-heptane followed by vigorous vortex mixing for 3 min. The heptane layer was transferred to a clean borosilicate glass screw-cap tube. The sterol extract was scanned spectrophotometrically between 220 and 300 nm with a Spectrophotometer.

Data set [7] deals with reactive oxygen species (ROS). Put plainly: ROS production using dichlorofluorescin diacetate dye. The format is cell-based. As to conditions: C. albicans ATCC 24433, dichlorofluorescin diacetate dye. As to the method:
Apart from lanosterol 14 a-demethylase inhibition, few azoles like miconazole are known to exert their antifungal action by reactive oxygen species (ROS) generation. Therefore ROS production in C. albicans ATCC 24433 was evaluated for these compounds by using dichlorofluorescin diacetate dye. […] ROS can damage a wide range of molecules, including nucleic acids, proteins and lipids, can cause apoptosis, necrotic death and with this wide range of targets it is difficult to determine which events lead to loss of viability of cells following damage.

For a further data set, the system named is pathogenic fungi. Put plainly: Antifungal activity, overall assessment of the microbroth dilution results. Particulars: based on the MIC results. In kind it is cell-based. How it is done: as §1
[8] abbreviates: Aspergillus fumigatus, MCC1046, read-out: MIC.
[9] abbreviates: Aspergillus niger, ATCC10578, read-out: MIC.
[10] abbreviates: Candida albicans, ATCC10231, read-out: MIC.
[11] abbreviates: Candida albicans, ATCC24433, read-out: MIC.
[12] abbreviates: Nakaseomyces glabratus, NCYC388, read-out: MIC.
Setting [13] is: Cryptococcus neoformans, ATCC34664, read-out: MIC.

As a reminder, the MIC is the least concentration at which growth counts as inhibited. Regarding `Cc1cc(C)cc(C(O)c2cn(-c3ccc(Cl)cc3O)nn2)c1` (stereo not shown) [Compound 1ab, 5-Chloro-2-(4-((3,5-dimethylphenyl)(hydroxy)methyl)-1H-1,2,3-triazol-1-yl)phenol], the MIC in data set [1] (setting [8]) is 32 mg/L (≈ 97 µM); in data set [2] (setting [9]), above 128 mg/L; in [3] (setting [10]), 32 mg/L (≈ 97 µM); in data set [4] (setting [11]) it was 32 mg/L (≈ 97 µM); in data set [5] (setting [12]), 32 mg/L (≈ 97 µM); in [6] (setting [13]), 32 mg/L (≈ 97 µM). Also, in the data set with ergosterol, the “ergosterol depletion (sterol profile, height of absorbance peaks 220-300 nm)” value was “no ergosterol depletion was observed”. Besides, the ROS generation entry in data set [7] is recorded as “dose dependent increase in ROS generation”. Further, the “antifungal activity, overall assessment” value in the data set on pathogenic fungi is “promising molecules”.

Turning to `CC(O)(Cc1cn(-c2cc(Cl)ccc2O)nn1)c1ccccc1` (stereo not shown) [Compound 2fa, 4-Chloro-2-(4-(2-hydroxy-2-phenylpropyl)-1H-1,2,3-triazol-1-yl)phenol], the MIC in [1] (setting [8]) was 8 mg/L (≈ 24.3 µM); in data set [2] (setting [9]), above 128 mg/L; in data set [3] (setting [10]) it was 16 mg/L (≈ 48.5 µM); in [4] (setting [11]), 16 mg/L (≈ 48.5 µM); in [5] (setting [12]), 8 mg/L (≈ 24.3 µM); in [6] (setting [13]), 16 mg/L (≈ 48.5 µM). The ROS generation result in data set [7] was “dose dependent increase in ROS generation”. The “antifungal activity, overall assessment” value with pathogenic fungi is reported as “promising molecules”.

On to `CCC(O)(c1ccccc1)c1cn(-c2ccc(Cl)cc2O)nn1` (stereo not shown) [Compound 1db], for which the MIC in [1] is above 128 mg/L; in [2], above 128 mg/L; in [3], 32 mg/L (≈ 97 µM); in [4], 16 mg/L (≈ 48.5 µM); in data set [5] it was 8 mg/L (≈ 24.3 µM); in data set [6] it was 16 mg/L (≈ 48.5 µM). Also, the “antifungal activity, overall assessment” value with pathogenic fungi is recorded as “promising molecules”.

By melting point is commonly meant the temperature of the solid-liquid transition. On to `CCC(O)(Cc1cn(-c2ccc(Cl)cc2O)nn1)c1ccccc1` (stereo not shown) [Compound 2gb, 5-Chloro-2-(4-(2-hydroxy-2-phenylbutyl)-1H-1,2,3-triazol-1-yl)phenol], for which the melting point was 129 to 131 °C. Besides, the MIC in data set [1] (setting [8]) was 8 mg/L (≈ 23.3 µM). Moreover, the MIC in data set [2] (setting [9]) is above 128 mg/L. Further, in data set [3] (setting [10]), the MIC worked out at 16 mg/L (≈ 46.5 µM). Besides, the MIC in data set [4] (setting [11]) amounted to 16 mg/L (≈ 46.5 µM). For the same compound, the MIC in [5] (setting [12]) was determined as 8 mg/L (≈ 23.3 µM). Besides, the minimum inhibitory concentration (MIC) in data set [6] (setting [13]) was 8 mg/L (≈ 23.3 µM). Further, in the data set with ergosterol, the “ergosterol depletion (sterol profile, height of absorbance peaks 220-300 nm)” value is listed as “most effective”. Moreover, the “antifungal activity, overall assessment” value with pathogenic fungi was “promising molecules”.

As to `CCC(O)(Cc1cn(-c2cc(Cl)ccc2O)nn1)c1ccccc1` (stereo not shown) [Compound 2ga, 4-Chloro-2-(4-(2-hydroxy-2-phenylbutyl)-1H-1,2,3-triazol-1-yl)phenol], the melting point lay in the range of 153 to 155 °C. In addition, the MIC in data set [1] (setting [8]) was found to be 32 mg/L (≈ 93.1 µM). Moreover, the MIC in data set [2] (setting [9]) was above 128 mg/L. In addition, the MIC in data set [3] (setting [10]) is 16 mg/L (≈ 46.5 µM). Also, the MIC in data set [4] (setting [11]) came to 16 mg/L (≈ 46.5 µM). Further, the MIC in [5] (setting [12]) came to 8 mg/L (≈ 23.3 µM). In addition, the MIC in data set [6] (setting [13]) stood at 16 mg/L (≈ 46.5 µM). Also, the “inhibition of lanosterol 14 α-demethylase enzyme (concluded from ergosterol depletion)” value with ergosterol is recorded as “potent inhibitors”. Further, in the data set with pathogenic fungi, the “antifungal activity, overall assessment” value is “promising molecules”.

For the compound `CCC(O)(c1ccccc1)c1cn(-c2cc(Cl)ccc2O)nn1` (stereo not shown) [Compound 1da], the MIC in [1] is above 128 mg/L; in [2], above 128 mg/L; in data set [3] it was 16 mg/L (≈ 48.5 µM); in data set [4], 16 mg/L (≈ 48.5 µM); in data set [5] it was 8 mg/L (≈ 24.3 µM); in data set [6] it was 16 mg/L (≈ 48.5 µM). For the same compound, the “ergosterol depletion (sterol profile, height of absorbance peaks 220-300 nm)” value in the data set with ergosterol was “no ergosterol depletion was observed”. Besides, in the data set on ergosterol, the “inhibition of lanosterol 14 α-demethylase enzyme (concluded from ergosterol depletion)” value was “potent inhibitors”. The ROS generation result in [7] was “dose dependent increase in ROS generation”. For the same compound, in the data set on pathogenic fungi, the “antifungal activity, overall assessment” value is listed as “promising molecules”.
